In patent publication US11300570B2, “Therapeutic and diagnostic methods for cancer” (Genentech, Inc., priority 2016, dated 2022):

Test system: locally advanced or metastatic NSCLC (PD-L1-selected patients)
Assay: BIRCH and FIR Phase II single-arm trials of atezolizumab monotherapy in PD-L1-selected NSCLC, efficacy by tTMB
Format: in vivo, human
Settings: for Median OS / Median PFS: 1L BIRCH/FIR; for ORR / Odds Ratio for Response / OS HR (95% CI) / PFS HR (95% CI): BIRCH and FIR 2L+; for Odds Ratio for Response / OS HR (95% CI) / PFS HR (95% CI): TMB-high vs TMB-low; for OS HR (95% CI) / PFS HR (95% CI): unadjusted, unstratified
Method: The correlation between the level of somatic mutations detected in a tumor tissue sample (e.g., mutation load, also referred to as tissue tumor mutational burden (tTMB)) and PD-L1 expression and their independent contribution to treatment with PD-L1 axis binding antagonists in non-small cell lung cancer (NSCLC) tumors was evaluated.
Pre-treatment tumor specimens from 465 patients with 2 L+ NSCLC who were enrolled in one of the three Phase II clinical trials (BIRCH, FIR, and POPLAR; Table 4 and 5), in which atezolizumab was administered as a monotherapy, were evaluated for tissue tumor mutational burden (tTMB). Tumor specimens from 1 L NSCLC patients were also evaluated in the BIRCH and FIR studies.
The efficacy analyses of the BIRCH population excluded these two untreated patients. Patients were eligible for enrollment in the BIRCH study if they had locally advanced or metastatic (e.g., stage IIIB, stage IV, or recurrent) NSCLC; a PD-L1-positive tumor status determined by an immunohistochemistry (IHC) assay based on PD-L1 expression in tumor infiltrating immune cells (IC) and/or tumor cells (TC); measurable disease, as defined by RECIST v1.1; and an Eastern Cooperative Oncology Group (ECOG) performance status of 0 or 1. Patients received atezolizumab at a dose of 1200 mg intravenously every three weeks for as long as patients were experiencing clinical benefit, i.e., in the absence of unacceptable toxicity or symptomatic deterioration attributed to disease progression.
The FIR (Clinical Trial ID No.: NCT01846416) patient population evaluated for tTMB consisted of 33 patients. Patients were eligible for enrollment in the FIR study if they had stage IIIB (e.g., not eligible for treatment by definitive chemoradiotherapy), stage IV, or recurrent NSCLC; a PD-L1-positive status as determined by an IHC assay; an ECOG performance status of 0 or 1; a life expectancy 12 weeks; measurable disease, as defined by RECIST v1.1; and adequate hematologic and end organ function. Patients received an intravenous dose of 1200 mg atezolizumab on Day 1 of each 21-day cycle until disease progression.
Data from the single-arm, PD-L1-selected trials BIRCH and FIR were combined and analyzed to examine the association between tTMB and clinical outcomes among PD-L1-selected patients. Data from the randomized, PD-L1-unselected trial, POPLAR, were analyzed separately and treatment effects between the atezolizumab- and docetaxel-treatment arms were compared.
To identify somatic mutations, tumor samples (e.g., archival tumor samples) were processed as described in Frampton et al. Nat. Biotechnol. 31:1023-31, 2013. Sequencing libraries were constructed to sequence and analyze samples. In addition to standard mutation processing, a mutation load estimation algorithm was applied that, based on the number of somatic mutations and/or rearrangements detected in Table 1 or Table 2, respectively, extrapolates to the exome or the genome as a whole. For purposes of mutation load estimation, all coding short variant alterations, base substitutions, and indels detected in the genes listed in Table 1 and Table 2 were counted. Further, all coding alterations (base substitutions and indels), including synonymous alterations, with the exception of known oncogenic driver mutations, in the genes listed in Table 1 and Table 2 were counted. […]

[1] = BEP (evaluable for TMB) (n = 102)

Substance: atezolizumab
- Median OS [1]: 20.1 months
- Median PFS [1]: 7.0 months
- Median OS (ITT (n = 173)): 20.1 months
- Median PFS (ITT (n = 173)): 6.9 months
- Median PFS (tTMB score <9 mut/Mb (n = 45)): 4 months
- Median OS (tTMB score <16 mut/Mb (n = 85)): 20.1 months
- Median PFS (tTMB score <16 mut/Mb (n = 85)): 6 months
- Median OS (tTMB score ≥9 mut/Mb (n = 57)): 20.1 months
- Median PFS (tTMB score ≥9 mut/Mb (n = 57)): 8.3 months
- Median PFS (tTMB score ≥16 mut/Mb (n = 17)): 11.1 months
- ORR (TMB-high (at or above 25% tTMB quantile cutoff)): 22%
- ORR (TMB-high (at or above 50% (median) tTMB cutoff)): 25%
- ORR (TMB-high (at or above 75% tTMB quantile cutoff)): 29%
- Odds Ratio for Response (25% tTMB cutoff): 2.14
- OS HR (95% CI) (25% tTMB cutoff): 0.92 (0.64, 1.30)
- PFS HR (95% CI) (25% tTMB cutoff): 0.79 (0.60, 1.00)
- Odds Ratio for Response (50% (median) tTMB cutoff): 2.11
- OS HR (95% CI) (50% (median) tTMB cutoff): 0.87 (0.65, 1.16)
- PFS HR (95% CI) (50% (median) tTMB cutoff): 0.64 (0.50, 0.80)
- Odds Ratio for Response (75% tTMB cutoff): 2.20
- OS HR (95% CI) (75% tTMB cutoff): 0.70 (0.49, 1.00)
- PFS HR (95% CI) (75% tTMB cutoff): 0.5 (0.38, 0.67)
- ORR (TMB-low (below 25% tTMB quantile cutoff)): 11%
- ORR (TMB-low (below 50% (median) tTMB cutoff)): 14%
- ORR (TMB-low (below 75% tTMB quantile cutoff)): 16%
- association of tissue TMB with efficacy (PD-L1-selected 2L+ patients with NSCLC, BIRCH and FIR): associated with improved efficacy
- association of tTMB with efficacy (all lines evaluated (1L and 2L+) in FIR and BIRCH): associated with improved efficacy
